Conversion rate and Km data for two molecules are collected here from article PMC10149896 (Acta Pharmaceutica Sinica. B, 2022).

The target in one experiment is T1, UGT71E5 (Carthamus tinctorius, UniProt A0A1P8C3B1).
T1 sequence (A0A1P8C3B1 1-480): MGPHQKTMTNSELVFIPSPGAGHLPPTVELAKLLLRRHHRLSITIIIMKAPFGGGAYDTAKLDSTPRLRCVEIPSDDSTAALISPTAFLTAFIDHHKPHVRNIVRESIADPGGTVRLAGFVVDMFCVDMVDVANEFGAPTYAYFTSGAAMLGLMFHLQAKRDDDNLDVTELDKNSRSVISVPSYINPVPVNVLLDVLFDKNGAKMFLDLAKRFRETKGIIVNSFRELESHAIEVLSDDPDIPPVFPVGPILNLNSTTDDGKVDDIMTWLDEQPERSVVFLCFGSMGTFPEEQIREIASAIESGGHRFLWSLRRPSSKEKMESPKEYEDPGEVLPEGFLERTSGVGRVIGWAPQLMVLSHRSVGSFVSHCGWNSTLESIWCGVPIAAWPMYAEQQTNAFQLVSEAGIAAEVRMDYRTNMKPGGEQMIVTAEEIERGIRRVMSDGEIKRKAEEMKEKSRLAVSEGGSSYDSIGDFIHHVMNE
Briefly: HPLC-MS conversion. In kind it is biochemical. Conditions: 0.4 mmol/L acceptor, 0.8 mmol/L UDP-Glc, pH 7.4.

The next experiment has as its system DoBBS8. The experiment in a line: HPLC quantification of dihydroresveratrol, nonlinear regression. The class given is biochemical, Dendrobium officinale. Conditions: malonyl-CoA 2.0 mmol/L fixed; 30 °C, 30 min.

Consider `Oc1ccc(CCc2cc(O)cc(O)c2)cc1` [compound 1, dihydro-resveratrol], for which the conversion rate at UGT71E5 amounted to 94%.

As for `CC(C)(COP(=O)(O)OP(=O)(O)OC[C@H]1O[C@@H](n2cnc3c(N)ncnc32)[C@H](O)[C@@H]1OP(=O)(O)O)[C@@H](O)C(=O)NCCC(=O)NCCSC(=O)CCc1ccc(O)cc1` [p-hydroxyphenylpropionyl-CoA], the Km in the experiment with DoBBS8 worked out at 61.8 µM.
